The subject of the assay is HIV-infected CD4 T cells. Briefly: PGT121 antibody-mediated killing of HIV-infected CD4 T cells, monocyte effector model. Type of assay: cell-based, human. The following applies: monocytes from 1 subject pre-treated 1 day with 11 or 33 nM. From the text:
NK cells and monocytes mediate antibody-dependent cellular cytotoxicity (ADCC) and antibody-dependent cellular phagocytosis (ADCP) respectively. To assess the ability of the compound of Example 15 to enhance ADCC and ADCP, two models were developed using monocytes or PBMCs as effector cells and HIV-infected CD4 T cells as target cells. PBMCs were isolated from 3 healthy subjects' leukaphereses (AlICells, participant IDs A4593, A4596, A4606), as described above. CD4 T cells were isolated from PBMCs using negative selection magnetic beads (EasySep, StemCell Technologies). CD4 T cells were spinfected with HIV-1 isolate 92HT593 (NIH AIDS Reagent Program) and cultured for 5 days at 37° C. For the PBMC model, autologous PBMCs were cultured for 5 days with vehicle control (DMSO) or Example 15 at 100 or 1000 nM. […] Marker staining was measured by flow cytometry using a LSR Fortessa (BD Biosciences) and analyzed with FlowJo software (TreeStar). The percent killing was determined by calculating the reduction of p24+CD4+ T cells mediated by PGT121 antibody relative to a no antibody control.
PBMCs (FIG. 3) or monocytes (FIG. 4) were treated with DMSO or TLR8 agonist for 5 days (FIG. 3) or 1 day (FIG. 4) and then co-cultured for 1 day with autologous HIV-infected CD4 T cells−/+anti-HIV Env antibody PGT121. Reductions in %p24+ CD4+ T cells, relative to no antibody control, were measured by FACS. […]

The structures appear in SMILES notation.

With `CCCC[C@H](CO)Nc1nc(N)nc2cccnc12` [Example 15], the “PGT121-mediated killing of HIV-infected CD4+ T cells compared to DMSO control” value is reported as “markedly enhanced”.

The record behind these values is US20180263985A1, “MODULATORS OF TOLL-LIKE RECEPTORS FOR THE TREATMENT OF HIV” (Gilead Sciences, Inc., priority 2015, published 2018).
